# Measured values published in patent publication US20260091136A1, “USING ENHO GENE THERAPY TO TREAT CARDIOMETABOLIC DISEASE” (University of Pittsburgh-of the Commonwealth System of …, priority 2023, published 2026).
# Entries after “also recorded” stand apart in the source; their conditions may differ.
# Columns and labels:
# HFpEF mice [1] = assay: Body weight during four weeks of daily recombinant Adropin in HFpEF mice (Example 1); type: in vivo; conditions: for relative body weight (change per mouse between days 0 and 29): p-value<0.0001
# Excerpt: The mouse HFpEF model used in this study was first reported in Schiattarella et al. (2019), Nature 568: 351-356 (PMID: 30971818). Adult C57BL/6N or C57BL/6J mice (i.e. C57BL/6 wildtype) are placed on a diet of either regular chow (“control”), or a high fat diet (60% fat) supplemented with 0.5 g/L L-NAME in drinking water (“HFpEF”) for 5-20 weeks.
# Administration of Recombinant Adropin. Mice received low-fat chow or HFpEF diet for 10 weeks. For the following 4 weeks, the mice were maintained on respective diets and received daily injections of recombinant Adropin. Body weight was measured every day during the four weeks of treatment.
# HFpEF mice [2] = assay: Intraperitoneal glucose tolerance test (IPGTT), cohort 2; type: in vivo, C57BL/6J mice
# Excerpt: Twelve week-old C57BL/6J wild-type male mice were exposed to normal chow, or a combination of 60% high fat diet plus N^ω-nitro-L-arginine methyl ester (L-NAME: 0.5 g/L in drinking water) to induce HFpEF. After 8 weeks of diet, mice were randomly assigned to a control HFpEF group, or to a group receiving daily intraperitoneal injections of recombinant Adropin (450 nmol/kg) for the remaining weeks of the study. All animal experiments were approved by the University of Pittsburgh Institutional Animal Care and Use Committee. […] These changes occurred in the absence of systolic dysfunction (FIG. 6). Each marker of cardiac dysfunction was absent in HFpEF mice treated with Adropin (FIG. 6).
# Animal Care and Use. Male C57BL/6J 8-week-old mice were obtained from the Jackson Laboratory and maintained on chow for 4 weeks to acclimate to their new environment. Animals were housed in the University of Pittsburgh animal facility under standard conditions with ad libitum access to water and food and maintained on a constant 12-hour light/dark cycle. […]
# Intraperitoneal Glucose Tolerance Test (IPGTT). […] Blood glucose was measured by tail bleed at set time points using a Bayer Contour Next EZ handheld glucometer (t=15, 30, 45, 60, and 120 min).
# [3] = tested on: hearts from control HFpEF and Adropin treated HFpEF mice; assay: Bulk RNA sequencing of hearts, HFpEF vs HFpEF+Adropin; type: in vivo, C57BL/6J mice; conditions: heart bulk RNA-seq
# Excerpt: (§1) Animal Care and Use. Male C57BL/6J 8-week-old mice were obtained from the Jackson Laboratory and maintained on chow for 4 weeks to acclimate to their new environment. Animals were housed in the University of Pittsburgh animal facility under standard conditions with ad libitum access to water and food and maintained on a constant 12-hour light/dark cycle. At 12 weeks of age, the mice were exposed to normal chow (Chow; 60% carbohydrate, 26% protein, 14% fat), or a combination of high-fat diet (HFD; 20% carbohydrate, 20% protein, 60% fat) plus No-nitro-L-arginine methyl ester (L-NAME: 0.5 g/L) supplemented in their drinking water after adjusting the pH to 7.4 with 1N NaOH to induce HFpEF [10]. For cohort 1, the mice were subject to the HFpEF diet for 15 weeks. For cohort 2, after 8 weeks of diet, mice were randomly assigned to a control or treatment group receiving daily intraperitoneal injections of either vehicle or recombinant adropin at 450 nmol/kg animal weight prepared in PBS with 0.1% BSA for the remaining 5 weeks of the study. L-NAME supplemented drinking water was changed weekly and adropin was made fresh and sterile filtered before each use.
# Transcriptomics. Total RNA was isolated from myocardial LV and hepatic tissue using the RNeasy Plus Mini Kit. Approximately 2 μg RNA was used for bulk RNA sequencing performed by Azenta/GENEWIZ based on company recommendations to identify differential gene expression patterns between the experimental groups.
# LCAD = assay: O-GlcNAc co-immunoprecipitation from heart: LCAD; type: in vivo, C57BL/6J mice; conditions: Adropin-treated HFpEF mice, relative to levels in chow mice / HFpEF
# Excerpt: as §1
# Co-Immunoprecipitation. […] Images were obtained using LiCor Odyssey CLx System and protein densitometry was measured using the LiCor Image Studio Lite Ver. […]
# diabetic mice = conditions: cited from earlier work
substance,measurement,setting,value
Adropin: recombinant Adropin peptide hormone encoded by the ENHO gene; full-length (SEQ ID NO: 1) or cleaved product of amino acids 34-76 (SEQ ID NO: 2) (CHSRSADVDSLSESSPNSSPGPCPEKAPPPQKPSHEGSYLLQP),relative body weight (change per mouse between days 0 and 29),HFpEF mice [1]; HFpEF mice that received Adropin vs HFpEF mice without treatment,significantly lower
same,relative body weight (change per mouse between days 0 and 29),HFpEF mice [1]; HFpEF mice that received Adropin vs mice on control chow diet,significantly greater
same,body weight,"HFpEF mice [1]; HFpEF mice which received Adropin versus HFpEF mice which did not, daily Adropin for four weeks, beginning on day 8",reduced; also recorded: decrease
same,increase in circulating blood glucose levels (IPGTT),"HFpEF mice [2]; HFpEF increase vs chow, after adropin treatment",significantly attenuated
same,whole-body glucose tolerance / sensitivity,"HFpEF mice [2]; HFpEF+Adropin vs HFpEF, 450 nmol/kg daily i.p.",significantly restored; also recorded: significantly improves
same,"expression of extracellular matrix remodeling/fibrosis (e.g. Comp, Col12a1) and natriuretic peptide (e.g. Nppa) genes",[3]; Adropin-treated vs HFpEF mice,decreased expression; also recorded: downregulated
same,"decrease in extracellular matrix remodeling transcripts (Col1a1, Col3a1, Col5a1, Mmp2)",[3]; adropin-treated vs vehicle-treated HFpEF mice,> 2 fold
same,metabolic genes,[3]; between HFpEF and Adropin groups,no widespread changes
same,LCAD O-GlcNAcylation,LCAD,restored; also recorded: reduced
same,vascular stiffness,"diabetic mice; diet-induced obesity, previous study [9]",reduced
same,hepatocellular injury in NAFLD/MAFLD,"diabetic mice; exogenous adropin treatment, recent studies [34]",alleviates
same,physical activity,diabetic mice; previous studies [6-8],improved
same,hepatic steatosis and injury,"diabetic mice; previous studies [7, 34]",attenuated
same,glucose oxidation in the hearts of diabetic mice,diabetic mice; previous work from our group,restores
same,liver glucose production in diabetic mice,diabetic mice; previous work from our group,decreases
